Laboratory results from US12649753B2, “Inositol derivative and use thereof” (SHANGHAI SENHUI MEDICINE CO., LTD., priority 2020, dated 2026).

Experiment: Spectrophotometric pharmacodynamics (PD) assay: inhibition of hydroxyapatite generation in human plasma
Assay type: biochemical
Conditions: human plasma (EDTA-K2), phosphate 1.5 mM and calcium 12.5 mM final, 25° C., slope of absorbance at 550 nm between 6 min and 24 min; read-out: IC50 (Mean ± SD)
Procedure: The inhibition effect of the test compounds on the generation of the human plasma hydroxyapatite (HAP) was determined by the spectrophotometric pharmacodynamics (PD) assay.
1.1 Preparation of Reagents • 1) Human plasma anticoagulated with EDTA-K2. • 2) Mixed solution: disodium hydrogen phosphate 5 mM, calcium chloride 41.67 mM, adjusted to pH 7.4 and filtered through a 0.22 μm filter. • 3) Sodium chloride solution: 0.15 M, adjusted to pH 7.4 and filtered through a 0.22 μm filter.
2.1 Test Procedures • 1) The test compounds were prepared using a 0.15 M sodium chloride solution. • 2) The human plasma sample was reprocessed. A sufficient amount of plasma was taken and centrifuged at room temperature at 10000 g for 30 min for later use. • 3) The plasma was added to a 96 well plate at 75 μL/well. • 4) The candidate drug was added at 5 μL/well. • 5) The mixed solution of disodium hydrogen phosphate and calcium chloride was added at […], with expected final concentrations of 1.5 mM and 12.5 mM, respectively. • 6) The plate was incubated at room temperature (25° C.) on a shaker (750 rpm), and the absorbance at a wavelength of 550 nm was measured every 3 min. • 7) The final reading was set as the slope of the change in absorbance between 6 min and 24 min.

IC50: 1860 ± 142 nM
SMILES: COCCOCCO[C@@H]1C(OP(=O)(O)O)[C@H](OCCOCCOC)[C@@H](OP(=O)(O)O)C(OP(=O)(O)O)[C@H]1OP(=O)(O)O (stereo partly shown) [INS 3001]
